Source: patent publication US7790759B2, “Glycyrrhetinic acid-30-amide derivatives and their use” (Tianjin Institute of Pharmaceutical Research, priority 2005, dated 2010)

What was measured:
writhing response = assay: Analgesic effect: acetic acid-induced writhing response; format: in vivo, ICR mice; settings: 50 mg/kg intragastric; for Writhing occurrence (x ± s): 0.6% acetic acid i.p. 1 h after administration, counted during 15 minutes, n = 10
Experimental: Male or female healthy ICR mice, each weighing 18-22 g, were used. Each mouse was injected intraperitoneally with 0.6% acetic acid in a dose of 0.2 ml one day before the test. The mice with the writhing response occurring in the range of 10-50 times were selected. The selected mice were grouped randomly into model, positive control and test groups based on the occurrence of the writhing response, with 10 animals for each group. The positive group was treated with aspirin in a dose of 50 mg/kg of body weight.
After fasting for at least 12 h, the animals were intragastrically administrated: the animals in model group are administered only with 1% CMCNa in the same amount. 1 h after administration, the mice were intraperitoneally injected with 0.6% acetic acid in a dose of 0.2 ml per animal. After 5 min, the occurrence of the writhing responses for one mouse was recorded during a period of 15 minutes. Based on the occurrence recorded, the inhibition rate of the active ingredient for writhing response was calculated. Inhibition rate=(means of the writhing occurrence for model group−means of the writhing occurrence for test group)/means of writhing occurrence for model group×100%. (3) Cough-prevention

cough = assay: Cough-prevention: ammonia-induced cough; format: in vivo, ICR mice; settings: for Cough occurrence (x ± sd) / Inhibition rate of cough (%): 50 mg/kg intragastric; for Cough occurrence (x ± sd): ammonia 1 h after administration, observed within 5 min, n = 10; for Inhibition rate of cough (%): versus model group
Experimental: Male or female healthy ICR mice, each weighing 18-22 g, were used. They were grouped randomly into model, positive control and test groups based on body weight, with 10 animals for each group. The positive group was treated by codeine phosphate in a dose of 50 mg/kg of body weight.
After fasting for at least 12 h, the animals were intragastrically administrated: the animals in model group are administered only with 1% CMCNa in the same amount. To start the test, 1 h after administration, the mice were placed in a 500 ml container, into which a cotton ball sucking 0.3 ml of ammonia was added to cause coughing. The occurrence of cough was observed within 5 min. Inhibition rate of cough=(the cough occurrence for model group−the cough occurrence for test group)/the cough occurrence for model group×100%. (4) Aldosterone-like Side Effects

swollen ear model = assay: Anti-inflammatory effect: xylene-induced swollen ear model; format: in vivo, ICR mice; settings: 40 mg/kg, intragastric, xylene on right ear 30 min after administration; weight ratio swollen ear to normal ear; n 8-10
Experimental: Male or female healthy ICR mice, each weighing 18-20 g, were grouped randomly into model, positive control and test groups based on body weight, with 8-10 animals for each group. The positive group was treated by hydrocortisone in a dose of 40 mg/kg of body weight.
The compound of formula I to be tested was administered intragastrically at a concentration of 2 mg/ml in a 1% CMCNa solution, while a 1% CMCNa solution alone was administered to the model group in the same amount. 30 min after administration, 50 μl of xylene solution was added dropwise into the right ear of each mouse to cause an inflammation reaction. 30 min later, the mice were killed by breaking the cervical vertebrae. Both ears were excised immediately from the mices, and punched in the same position with a puncher having a diameter of 0.6 cm. The obtained ear piece was weighed. For each mouse, the weight ratio of swollen ear to normal ear was regarded as an indication for the degree of swelling. Biostatistical analysis was performed using the Student's t test.

Influenza virus A = assay: Influenza virus A-infected mice models; format: in vivo; settings: 100 mg/kg
[1] = test system: paracetamol/hepatitis mice models; assay: Liver protection in paracetamol/hepatitis mice models; settings: 100 mg/kg
[2] = Subacute toxicity within one month (death); format: in vivo; settings: 300 mg/kg of body weight for one week
Experimental: (§1) Three compounds of formula I of the invention were selected to examine their subacute toxicity within one month, with dexamethasone and glycyrrhetinic acid as control. […] Furthermore, the level of aldosterone in blood plasma was determined. The level will decrease in a negative feedback way when an agent having aldosterone-like effects is administrated.

aldosterone = format: in vivo; settings: subacute toxicity study
Experimental: as §1

| SMILES | Writhing occurrence (x ± s) (writhing response) | Inhibition rate of writhing response (%) (writhing response; versus model group) | Cough occurrence (x ± sd) (cough) | Inhibition rate of cough (%) (cough) | Swelling degree of the swollen ear model (%) (x ± sd) (swollen ear model) | further results |
| --- | --- | --- | --- | --- | --- | --- |
| CC1(C(=O)NCc2cc(-c3ccc(O)cc3)no2)CCC2(C)CCC3(C)C(=CC(=O)C4C5(C)CCC(O)C(C)(C)C5CCC43C)C2C1 (stereo not shown) [Compound G1, N-[(3-p-hydroxylphenyl-isoxazol-5-yl)methyl]-glycyrrhetinamide] | 16.33 ± 10.57 | 19.7 | 28.20 ± 15.39 | −1.44 | – | – |
| Cc1ccc(-c2cc(CNC(=O)C3(C)CCC4(C)CCC5(C)C(=CC(=O)C6C7(C)CCC(O)C(C)(C)C7CCC65C)C4C3)on2)cc1 (stereo not shown) [Compound G2, N-[(3-p-methylphenyl-isoxazol-5-yl)methyl]-glycyrrhetinamide] | – | – | – | – | 68.6 ± 29.5 | – |
| CC1(C(=O)NCc2cc(-c3ccc(F)cc3)no2)CCC2(C)CCC3(C)C(=CC(=O)C4C5(C)CCC(O)C(C)(C)C5CCC43C)C2C1 (stereo not shown) [Compound G3, N-[(3-p-fluorophenyl-isoxazol-5-yl)methyl]-glycyrrhetinamide] | – | – | – | – | 60.8 ± 27.9 | – |
| COc1ccccc1-c1cc(CNC(=O)C2(C)CCC3(C)CCC4(C)C(=CC(=O)C5C6(C)CCC(O)C(C)(C)C6CCC54C)C3C2)on1 (stereo not shown) [Compound G6, N-[(3-o-methoxyphenyl-isoxazol-5-yl)methyl]-glycyrrhetinamide] | – | – | – | – | 53.4 ± 35.2 | – |
| Cc1ccc(-c2cc(CNC(=O)[C@@]3(C)CC[C@]4(C)CC[C@]5(C)C(=CCC6[C@@]7(C)CC[C@H](O)C(C)(C)C7CC[C@]65C)[C@@H]4C3)on2)cc1 (stereo partly shown) [DG2, N-[(3-p-methylphenyl-isoxazol-5-yl)methyl]-11-deoxy-glycyrrhetinamide] | – | – | – | – | 80.2 ± 18.8 | – |
| CC1(C(=O)NCc2cc(-c3ccc(F)cc3)no2)CCC2(C)CCC3(C)C(=CCC4C5(C)CCC(O)C(C)(C)C5CCC43C)C2C1 (stereo not shown) [DG3, N-[(3-p-fluorophenyl-isoxazol-5-yl)methyl]-11-deoxy-glycyrrhetinamide] | 18.33 ± 13.56 | 9.8 | 17.70 ± 7.10 | 36.33 | 56.1 ± 28.3 | – |
| CC1(C)[C@@H](O)CC[C@]2(C)[C@H]3CC=C4[C@@H]5C[C@@](C)(C(=O)NCc6cc(-c7ccccc7Cl)no6)CC[C@]5(C)CC[C@@]4(C)[C@]3(C)CC[C@@H]12 [DG4, N-[(3-o-chlorophenyl-isoxazol-5-yl)methyl]-11-deoxy-glycyrrhetinamide] | 6.56 ± 6.19 | 67.8 | 18.80 ± 7.04 | 32.37 | – | Death rate caused by the virus infection (Influenza virus A): decreased |
| COc1ccccc1-c1cc(CNC(=O)C2(C)CCC3(C)CCC4(C)C(=CCC5C6(C)CCC(O)C(C)(C)C6CCC54C)C3C2)on1 (stereo not shown) [DG6, N-[(3-o-methoxyphenyl-isoxazol-5-yl)methyl]-11-deoxy-glycyrrhetinamide] | 8.00 ± 6.48 | 60.7 | 22.60 ± 9.56 | 18.71 | 64.4 ± 29.2 | GPT [1]: decreased |
| Cc1cc(CNC(=O)C2(C)CCC3(C)CCC4(C)C(=CCC5C6(C)CCC(O)C(C)(C)C6CCC54C)C3C2)on1 (stereo not shown) [DG7, N-[(3-methyl-isoxazol-5-yl)methyl]-11-deoxy-glycyrrhetinamide] | 15.78 ± 12.43 | 22.4 | 20.40 ± 14.31 | 26.62 | – | – |
| CC1(C(=O)NCc2cc(-c3cccc(Cl)c3)no2)CCC2(C)CCC3(C)C(=CCC4C5(C)CCC(O)C(C)(C)C5CCC43C)C2C1 (stereo not shown) [DG8, N-[(3-m-chlorophenyl-isoxazol-5-yl)methyl]-11-deoxy-glycyrrhetinamide] | 15.89 ± 16.67 | 21.9 | 17.90 ± 8.21 | 35.61 | – | – |
| COc1ccccc1-c1cc(CNC(=O)[C@@]2(C)CC[C@]3(C)CC[C@]4(C)C(=CC(=O)[C@@H]5[C@@]6(C)CC[C@H](OC(C)=O)C(C)(C)[C@@H]6CC[C@]54C)[C@@H]3C2)on1 [RG1, N-[(3-o-methoxyphenyl-isoxazol-5-yl)methyl]-3-acetoxy-glycyrrhetinamide] | – | – | 17.64 ± 6.34 | 36.55 | – | – |
| CC(=O)Oc1ccccc1C(=O)O [aspirin, reference compound] | 5.44 ± 5.87 | – | – | – | – | inhibition at 50 mg/kg (writhing response; Mus musculus, po, versus model group, read-out: Inhibition rate of writhing response (%)): 73.2% |
| COc1ccc2c3c1O[C@H]1[C@@H](O)C=C[C@H]4[C@@H](C2)N(C)CC[C@@]341 [codeine phosphate, reference compound] | – | – | 8.40 ± 8.95 | – | – | inhibition at 50 mg/kg (cough; Mus musculus, po, read-out: Inhibition rate of cough (%)): 69.8% |
| C[C@@H]1C[C@H]2[C@@H]3CCC4=CC(=O)C=C[C@]4(C)[C@@]3(F)[C@@H](O)C[C@]2(C)[C@@]1(O)C(=O)CO [dexamethasone] | – | – | – | – | – | Death in subacute toxicity test [2]: All the animals died |
| CC1(C)[C@@H](O)CC[C@]2(C)[C@H]3C(=O)C=C4[C@@H]5C[C@@](C)(C(=O)O)CC[C@]5(C)CC[C@@]4(C)[C@]3(C)CC[C@@H]12 [glycyrrhetinic acid] | – | – | – | – | – | Death in subacute toxicity test [2]: no death was observed; Aldosterone level in blood plasma (ng/ml) (x ± sd) (aldosterone; 300 mg/kg, n = 8): 68.3 ± 12.5 ng/mL; Aldosterone-like effects (decrease of plasma aldosterone by negative feedback) (aldosterone): confirmed the aldosterone-like effects |
| C[C@]12CCC(=O)C=C1CC[C@@H]1[C@@H]2[C@@H](O)C[C@@]2(C)[C@H]1CC[C@]2(O)C(=O)CO [hydrocortisone, reference compound] | – | – | – | – | 55.7 ± 35.4 | – |
